From patent US8329195B2, “Detoxified pneumococcal neuraminidase and uses thereof” (priority 2007, dated 2012)

What was measured:
[1] = biological target: PAF-R (Homo sapiens, UniProt P25105); conditions: cited from earlier work
[2] = tested on: TIGR4 strain; experiment: Attachment of TIGR4 strain to ganglioside-coated ELISA plates; type: binding, Streptococcus pneumoniae; conditions: short-term incubation with the TIGR4 strain
Experimental: The ability of the TIGR4, and its nanA and nanB mutants to bind to specific gangliosides is measured. The gangliosides used include mixed gangliosides, asialo-GM1, GM1, GD1a, GD1b, GT1 (Calbiochem) and the GM3 ganglioside (Sigma) The GM3 ganglioside lacks the terminal or internal GalNAcβ1-4Gal sequence involved in pneumococcal binding and is used as a negative control. These mixed, mono-, di- or tri-sialic acid containing gangliosides bind readily to ELISA plates. […] Using ganglioside-coated plates, the ability to attach to these plates by wildtype TIGR4 strain, the stable opaque and transparent phase variants of the TIGR4 strain, the nanA, nanB, and nanA/nanB mutant strains is compared. These analyses include short-term incubation (1 hr) and extended incubations (24 hrs) on ganglioside-coated plates, Attached pneumococci are removed from the ganglioside plates by short incubation (10-15 min.) in Todd Hewitt medium containing 0.5% yeast extract followed by repeated pipetting and plating the released bacteria on blood agar plates. Alternatively 41° C. Todd Hewitt broth agar containing 0.5% yeast extract is poured on top of the attached pneumococci and the colonies are counted through the bottom of the plate. Controls include plates with no pneumococci and plates with no gangliosides but with pneumococci.

[3] = tested on: S. pneumoniae strain EF3030; experiment: GLS preincubation of S. pneumoniae strain EF3030 before nasal application to xid mice, CFU in tissues; type: in vivo, Streptococcus pneumoniae; conditions: four days after nasal application
Experimental: Aliquots (3×10^7 CFUs) of S. pneumoniae were incubated for 30 minutes with 20 μg asialo-GM1 (a-GM1) or 125 μg of mixed GLSs (MG) prior to nasal application. The ON/E, OBs, brain and NW, NALT and lungs were collected four days later and analyzed for numbers of S. pneumoniae. The 0 value on the Y-axis represents the absence of detectable CFUs. Indicated are the mean+one SE of 5 mice and the P-values were obtained following statistical analysis with the Student's t-test or the Mann-Whitney two sample rank test, as appropriate for the data examined. The data are representative of two separate experiments.
Eight serial, three-fold dilutions were made of tissues and body fluids in sterile Ringer's solution and plated on blood agar plates containing […] gentamicin sulfate. The CFU were enumerated 24 hr after plating and incubation in a candle jar. The results were expressed as CFUs/organ, per NW or per ml of blood.
To block GLS binding sites, 3×10^7 CFU of S. pneumoniae strain EF3030 were incubated for 30 min on ice with either 20 μg asialo-GM1 from human brain or 125 μg of mixed GLSs (18% GM1, 55% GD1a, 15% GD1b, 10% GT1b, 2% other GLSs) from bovine brain (Calbiochem-Novabiochem Corporation, Inc., La Jolla, Calif.). GLSs were dissolved in PBS and extensively mixed a day prior to use. […] Tissues were analyzed for CPUs four days later.

[4] = Matsubura et al. 1999; cited from earlier work

Chain of PAF-R (P25105 whole entry, species assumed): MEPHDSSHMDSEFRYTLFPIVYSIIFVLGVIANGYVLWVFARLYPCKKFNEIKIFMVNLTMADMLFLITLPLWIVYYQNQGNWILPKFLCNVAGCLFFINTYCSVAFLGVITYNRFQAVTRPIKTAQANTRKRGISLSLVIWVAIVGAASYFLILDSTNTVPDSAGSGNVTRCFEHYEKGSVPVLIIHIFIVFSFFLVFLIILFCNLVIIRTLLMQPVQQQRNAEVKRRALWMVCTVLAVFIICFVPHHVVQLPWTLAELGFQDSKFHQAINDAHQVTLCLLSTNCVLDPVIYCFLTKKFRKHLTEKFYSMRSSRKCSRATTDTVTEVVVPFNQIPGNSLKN

Compound: CCCCCCCCOc1ccccc1C(=O)Nc1ccc(C(=O)OCC[N+](C)(CC)CC)cc1 [octylonium bromide]
- binding to the PAF-R [1]: binds with high affinity

Compound: GM1
- binding of pneumococci to coated plates [2]: not

Compound: asialo-GM1
- binding of pneumococci to coated plates [2]: bind and attachment
- reduced colonization in CNS ([3]; CNS): 25 fold
- reduced colonization in lungs ([3]; lungs): 63 fold

Compound: VWRLLAPPFSNRLLP [GM1-binding peptide]
- IC50 [4]: 1 µM
- affinity for GM1 [4]: 10^10 M^−1

Compound: GM3 [GM-3]
- binding of pneumococci to coated plates [2]: not
